# Test results taken from patent US20140030808A1, “Method for Cellular RNA Expression” (BIONTECH AG, priority 2010, published 2014).
# Legend:
# Type in all cases: cell-based
# [1] = test system: Primary human foreskin fibroblasts (BJ, CCD1079Sk); assay: Intracellular FACS staining of reprogramming transcription factors after IVT RNA transfer
# Protocol: (AB) Primary human foreskin fibroblasts from different donors and suppliers (panel A: BJ fibroblasts; panel B: CCD1079Sk) and (C) MEFs were electroporated with 0.5 μg IVT RNA encoding for firefly luciferase and 1.25 μg IVT RNA encoding for eGFP and 2.5 μg of IVT RNA encoding for each of the individual reprogramming factors OCT4, SOX2, KLF4 and c-MYC. Electroporations were performed in 2 mm gap cuvettes using optimized parameters for each cell type. The cells were plated into 6-well-plates at a density of 250000 cells/well. The cells were either left untreated or incubated with increasing amounts of C13H8N4OS (PKR-inhibitor) ranging from 0.5 μM to 2 μM as indicated in the panel legend. The OCT4 expression was detected by intracellular staining with a fluorescently labeled antibody and measured by flow cytometry at the indicated time points. The mean fluorescence intensity (MFI) of the transfected OCT4-positive cell fractions is shown. (D) CCD1079Sk fibroblasts were electroporated with IVT RNA as in B and treated for 24 h or 48 h with 2 μM C13H8N4OS. 72 h post electroporation the cells were harvested and intracellular staining with fluorescent labeled antibodies reactive against the indicated transcription factors were performed. The MFI of the transcription factor-positive cell fractions are shown.
# Intracellular FACS staining of OCT4, SOX2 and NANOG was done using the human pluripotent stem cell transcription factor analysis kit following the manufacturer's instructions (BD Bioscience). Briefly, 3-5×10^5 cells were harvested, washed twice with PBS and fixed for 20 min in 250 μl BD Cytofix Buffer (BD Biosciences) at room temperature. After the incubation cells were washed twice with PBS and permeabilized by washing twice with 1× Perm/Wash Buffer (BD Bioscience) followed by 10 minutes incubation in 50 μl 1× Perm/Wash at room temperature. […] Cells were resuspended in PBS supplemented with 2% formaldehyde and analyzed by flow cytometry as described above. […]
# [2] = test system: murine embryonic fibroblasts (MEFs); assay: Luciferase reporter gene assay in murine fibroblasts electroporated with IVT RNA; conditions: 0.5 μM to 2 μM, mouse fibroblasts, after electroporation
# Protocol: (A-C) Primary human foreskin fibroblasts from different donors and suppliers (panel A: BJ fibroblasts; panel B CCD1079Sk; panel C: HFF) and (D) murine embryonic fibroblasts (MEFs) were electroporated with 0.5 μg IVT RNA encoding for firefly luciferase and 1.25 μg IVT RNA encoding for enhanced GFP (eGFP). The cells were plated in duplicates into 96-well-plates at a density of 30000 cells/well. The cells were either left untreated or incubated with increasing amounts of C13H8N4OS (PKR-inhibitor) ranging from 0.5 μM to 2 μM as indicated in the panel legends. Luciferase activity was measured at the indicated time points. Mean values of the duplicates are given.
# Transfer of IVT-RNA into cells was performed by electroporation (EP). To this end, 1-10×10^7 cells per EP were harvested, washed sequentially with PBS supplemented with 2 mM EDTA and X-VIVO 15 medium (Lonza), resuspended in 125 μl X-VIVO 15 medium and transferred to a 2-mm gap sterile electroporation cuvette (Bio-RAD, Hercules, Calif., USA). […]
# For luciferase assays, cells electroporated with in vitro transcribed RNA coding for luciferase were plated in 96-well white flat-bottom microplates (Nunc, Langenselbold, Germany) and incubated at 37° C. […] Bioluminescence flux was measured with the Infinite M200 microplate luminescence reader (Tecan, Crailsheim, Germany) with 1 s integration time. […]
# [3] = test system: Primary human foreskin fibroblasts (HFF); conditions: 24 h supernatants
# [4] = 2 μM for 24 h or 48 h, 72 h post electroporation
smiles,measurement,setting,value
"O=C1Nc2ccc3ncsc3c2/C1=C/c1c[nH]cn1 [C13H8N4OS, 6,8-dihydro-8-(1H-imidazol-5-ylmethylene)-7H-pyrrolo[2,3-g]benzothiazol-7-one]",OCT4 expression (MFI),[1]; 0.5 μM to 2 μM permanently or 2 μM for 24 h or 48 h,strongly increased and stabilized
same,Nanog expression (MFI),[1]; [4],strongly increased and stabilized
same,SOX2 expression (MFI),[1]; [4],strongly increased and stabilized
same,luciferase expression,[2],dose dependent increase
same,secretion of IFNβ,"[3]; 2 μM C13H8N4OS, HFF electroporated with eGFP IVT RNA",remarkably enhanced
same,secretion of IFNα,"[3]; HFF, with or without 2 μM C13H8N4OS",not observed
